In patent US9751854B2 (Millennium Pharmaceuticals, Inc., priority 2014, dated 2017):
pIC50: −log10 of the molar value.

Biological target: human VPS34 (Homo sapiens (Human), UniProt Q8NEB9)
Test: Human VPS34 enzyme assay (Adapta TR-FRET ADP detection)
Assay type: biochemical
Design: Percent Inhibition: dose or concentration left out as unconfirmed
Conditions: for pIC50: IC50 range class

Chain of human VPS34 (Q8NEB9 whole entry): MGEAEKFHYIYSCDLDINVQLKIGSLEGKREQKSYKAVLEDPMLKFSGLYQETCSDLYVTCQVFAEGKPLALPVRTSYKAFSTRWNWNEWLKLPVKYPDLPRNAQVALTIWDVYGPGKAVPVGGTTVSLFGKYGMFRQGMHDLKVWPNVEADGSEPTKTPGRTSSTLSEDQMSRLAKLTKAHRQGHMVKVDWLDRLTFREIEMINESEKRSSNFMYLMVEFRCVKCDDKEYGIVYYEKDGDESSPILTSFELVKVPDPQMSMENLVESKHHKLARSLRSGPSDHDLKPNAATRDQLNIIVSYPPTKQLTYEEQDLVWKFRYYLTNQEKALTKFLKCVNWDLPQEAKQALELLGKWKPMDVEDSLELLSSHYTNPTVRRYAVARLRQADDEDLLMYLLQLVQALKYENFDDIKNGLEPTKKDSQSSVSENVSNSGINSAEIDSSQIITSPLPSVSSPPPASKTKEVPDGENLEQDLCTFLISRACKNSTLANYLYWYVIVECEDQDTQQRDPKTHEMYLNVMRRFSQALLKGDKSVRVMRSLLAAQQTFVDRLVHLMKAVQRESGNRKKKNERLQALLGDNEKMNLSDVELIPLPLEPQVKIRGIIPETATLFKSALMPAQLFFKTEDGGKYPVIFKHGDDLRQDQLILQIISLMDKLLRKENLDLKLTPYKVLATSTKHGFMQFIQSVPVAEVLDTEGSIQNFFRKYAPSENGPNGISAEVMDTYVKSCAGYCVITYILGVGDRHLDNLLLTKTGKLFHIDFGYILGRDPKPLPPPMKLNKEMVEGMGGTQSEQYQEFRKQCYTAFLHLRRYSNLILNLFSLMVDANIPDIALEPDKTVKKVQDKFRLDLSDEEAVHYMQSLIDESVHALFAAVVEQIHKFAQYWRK

pIC50 | Percent Inhibition [%] | Compound
> 8.00 |  | CC(=O)Nc1cc(-c2cnc(N(C)C)c(C(=O)N(C)c3ccc(F)cc3F)c2)ccn1 [Compound I-174, 2′-Acetamido-N-(2,4-difluorophenyl)-6-(dimethylamino)-N-methyl-[3,4′-bipyridine]-5-carboxamide]
< 7.00 |  | CC(=O)Nc1cc(-c2cncc(S(=O)(=O)NC(C)(C)C)c2C)ccn1 [Compound I-462, N-(5-(N-(tert-butyl)sulfamoyl)-4-methyl-[3,4′-bipyridin]-2′-yl)acetamide]
7.30 to 8.00 |  | CCOC(=O)Nc1cc(-c2cnc(Cl)c(NS(=O)(=O)c3ccc(F)cc3F)c2C)ccn1 [Compound I-383, ethyl (6-chloro-5-{[(2,4-difluorophenyl)sulfonyl]amino}-4-methyl-3,4′-bipyridin-2′-yl)carbamate]
7.30 to 8.00 |  | CC(=O)Nc1cc(-c2cncc(S(=O)(=O)NC34CC(C3)C4)c2)ccn1 [Compound I-190, N-[5-(bicyclo[1.1.1]pent-1-ylsulfamoyl)-3,4′-bipyridin-2′-yl]acetamide]
> 8.00 |  | COc1ccc(S(=O)(=O)Nc2cc(-c3ccnc(NC(C)=O)c3)cnc2C)cc1 [Compound I-165, N-(5-{[(4-methoxyphenyl)sulfonyl]amino}-6-methyl-3,4′-bipyridin-2′-yl)acetamide]
7.30 to 8.00 |  | CC(=O)Nc1cc(-c2cnc3c(c2)S(=O)(=O)N(C)CN3)ccn1 [Compound I-21, N-[4-(2-methyl-1,1-dioxido-3,4-dihydro-2H-pyrido[2,3-e][1,2,4]thiadiazin-7-yl)pyridin-2-yl]acetamide]
7.30 to 8.00 |  | CC(=O)Nc1cc(-c2cnc(C)c(NS(=O)(=O)c3ccc(C(C)C)cc3)c2)ccn1 [Compound I-134, N-(5-{[(4-isopropylphenyl)sulfonyl]amino}-6-methyl-3,4′-bipyridin-2′-yl)acetamide]
< 7.00 |  | CC(=O)Nc1cc(-c2cnc3[nH]cc(CN(C)C)c3c2)ccn1 [Compound I-85, N-(4-{3-[(dimethylamino)methyl]-1H-pyrrolo[2,3-b]pyridin-5-yl}pyridin-2′-yl)acetamide]
7.30 to 8.00 |  | CC(=O)Nc1cc(-c2cnc(Cl)c(NS(=O)(=O)N3CCCC3)c2C)ccn1 [Compound I-488, N-{6-chloro-4-methyl-5-[(pyrrolidin-1-ylsulfonyl)amino]-3,4′-bipyridin-2′-yl}acetamide]
< 7.00 |  | CC(=O)Nc1cc(-c2cnc(C)c(N(C)C(=O)c3ccc(F)cc3F)c2)ccn1 [Compound I-398, N-(2′-acetamido-6-methyl-3,4′-bipyridin-5-yl)-2,4-difluoro-N-methylbenzamide]
7.30 to 8.00 |  | Cc1nccc(Nc2cc(-c3cncc(C(C)OCc4ccccn4)c3)ccn2)n1 (stereo not shown) [Compound I-349, N-(2-methylpyrimidin-4-yl)-5-[1-(pyridin-2-ylmethoxy)ethyl]-3,4′-bipyridin-2′-amine]
7.30 to 8.00 |  | Cc1nccc(Nc2cc(-c3cnc(Cl)c(S(=O)(=O)NC45CC(C4)C5)c3)ccn2)n1 [Compound I-242, N-(bicyclo[1.1.1]pent-1-yl)-6-chloro-2′-[(2-methylpyrimidin-4-yl)amino]-3,4′-bipyridine-5-sulfonamide]
7.30 to 8.00 | 99 | CC(=O)Nc1cc(-c2cnc(Cl)c(NS(=O)(=O)c3cn(C)nc3C(F)(F)F)c2C)ccn1 [Compound I-493, N-[6-chloro-4-methyl-5-({[1-methyl-3-(trifluoromethyl)-1H-pyrazol-4-yl]sulfonyl}amino)-3,4′-bipyridin-2′-yl]acetamide]
7.30 to 8.00 |  | CC(=O)Nc1cc(-c2cnc(N)c(S(=O)(=O)NCCc3ccccc3)c2)ccn1 [Compound I-148, N-{6-amino-5-[(2-phenylethyl)sulfamoyl]-3,4′-bipyridin-2′-yl}acetamide]
7.00 to 7.30 |  | CC(=O)Nc1cc(-c2cncc(N(C)C(=O)c3ccc(F)cc3F)c2)ccn1 [Compound I-397, N-(2′-acetamido-3,4′-bipyridin-5-yl)-2,4-difluoro-N-methylbenzamide]
7.30 to 8.00 |  | Cc1nccc(Nc2cc(-c3cncc(C(=O)N(C)C45CC(C4)C5)c3)ccn2)n1 [Compound I-234, N-(bicyclo[1.1.1]pent-1-yl)-N-methyl-2′-[(2-methylpyrimidin-4-yl)amino]-3,4′-bipyridine-5-carboxamide]
> 8.00 | >99 | CC(=O)Nc1cc(-c2cnc(Cl)c(NS(=O)(=O)N(C)C)c2)ccn1 [Compound I-372, N-{6-chloro-5-[(dimethylsulfamoyl)amino]-3,4′-bipyridin-2′-yl}acetamide]
> 8.00 |  | Cc1ncc(-c2ccnc(NC(=O)C3CC3)c2)cc1NS(=O)(=O)N(C)C [Compound I-311, N-{5-[(dimethylsulfamoyl)amino]-6-methyl-3,4′-bipyridin-2′-yl)cyclopropanecarboxamide]
7.30 to 8.00 |  | CC(=O)Nc1cc(-c2cnc(C)c(NS(=O)(=O)c3cccc(C)c3F)c2)ccn1 [Compound I-339, N-(5-{[(2-fluoro-3-methylphenyl)sulfonyl]amino}-6-methyl-3,4′-bipyridin-2′-yl)acetamide]

pIC50 | Percent Inhibition [%] | Compound
7.30 to 8.00 |  | CC(=O)Nc1cc(-c2cncc(S(=O)(=O)N3CCC(F)(F)CC3)c2)ccn1 [Compound I-9, N-{5-[(4,4-difluoropiperidin-1-yl)sulfonyl]-3,4′-bipyridin-2′-yl}acetamide]
< 7.00 |  | CC(=O)Nc1cc(-c2cnc(Cl)c(C(=O)N3CCC3)c2)c(C)cn1 [Compound I-434, N-[5-(azetidin-1-ylcarbonyl)-6-chloro-5′-methyl-3,4′-bipyridin-2′-yl]acetamide]
7.30 to 8.00 |  | Cc1ncc(-c2ccnc(NC(=O)OCC3(C)COC3)c2)cc1NS(=O)(=O)c1ccc(F)cc1F [Compound I-324, (3-methyloxetan-3-yl)methyl (5-{[(2,4-difluorophenyl)sulfonyl]amino}-6-methyl-3,4′-bipyridin-2′-yl)carbamate]
7.30 to 8.00 |  | CC(=O)Nc1cc(-c2cc(NS(=O)(=O)c3ccc(F)cc3F)c3ccnn3c2)ccn1 [Compound I-404, N-[4-(4-{[(2,4-difluorophenyl)sulfonyl]amino}pyrazolo[1,5-a]pyridin-6-yl)pyridin-2-yl]acetamide]
7.00 to 7.30 |  | Cc1nccc(Nc2cc(-c3cnc(Cl)c(NC(=O)c4ccc(F)cc4F)c3C)ccn2)n1 [Compound I-295, N-{6-chloro-4-methyl-2′-[(2-methylpyrimidin-4-yl)amino]-3,4′-bipyridin-5-yl}-2,4-difluorobenzamide]
> 8.00 |  | CC(=O)Nc1cc(-c2cnc3[nH]cc(S(=O)(=O)N4CCCC4)c3c2)ccn1 [Compound I-158, N-{4-[3-(pyrrolidin-1-ylsulfonyl)-1H-pyrrolo[2,3-b]pyridin-5-yl]pyridin-2-yl}acetamide]
> 8.00 |  | CC(=O)Nc1cc(-c2cnc(N)c(S(=O)(=O)N(C)CC3CC3)c2)ccn1 [Compound I-110, N-{6-amino-5-[(cyclopropylmethyl)(methyl)sulfamoyl]-3,4′-bipyridin-2′-yl}acetamide]
> 8.00 |  | Cc1nccc(Nc2cc(-c3cc(NS(=O)(=O)c4ccc(F)cc4F)c4ccnn4c3)ccn2)n1 [Compound I-486, 2,4-difluoro-N-(6-{2-[(2-methylpyrimidin-4-yl)amino]pyridin-4-yl}pyrazolo[1,5-a]pyridin-4-yl)benzenesulfonamide]
> 8.00 |  | CC(=O)Nc1cc(-c2cnc(C)c(NS(=O)(=O)C3CCCCC3)c2)ccn1 [Compound I-72, N-{5-[(cyclohexylsulfonyl)amino]-6-methyl-3,4′-bipyridin-2′-yl]acetamide]
7.30 to 8.00 |  | CC(=O)Nc1cc(-c2cnc(C)c(S(=O)(=O)Nc3ccc(F)cc3F)c2)ccn1 [Compound I-353, N-(5-(N-(2,4-difluorophenyl)sulfamoyl)-6-methyl-[3,4′-bipyridin]-2′-yl)acetamide]
7.30 to 8.00 |  | O=C(c1cncc(-c2ccnc(Nc3ccnc(C4CC4)n3)c2)c1)N1CC(F)(F)C1 [Compound I-413, (2′-[(2-cyclopropylpyrimidin-4-yl)amino]-3,4′-bipyridin-5-yl)(3,3-difluoroazetidin-1-yl)methanone]
7.30 to 8.00 |  | Cc1ncc(-c2ccnc(NC(=O)C3CC3(F)F)c2)cc1NS(=O)(=O)N(C)C (stereo not shown) [Compound I-244, N-{5-[(dimethylsulfamoyl)amino]-6-methyl-3,4′-bipyridin-2′-yl}-2,2-difluorocyclopropanecarboxamide]
< 7.00 |  | CC(=O)Nc1cc(-c2cnc(C#N)c(N3CCCCC3C)c2)ccn1 (stereo not shown) [Compound I-380, N-[6-cyano-5-(2-methylpiperidin-1-yl)-3,4′-bipyridin-2′-yl]acetamide]
> 8.00 |  | CC(=O)Nc1cc(-c2cnc(C)c(NS(=O)(=O)c3ccc(F)c(F)c3)c2)ccn1 [Compound I-59, N-(5-{[(3,4-difluorophenyl)sulfonyl]amino}-6-methyl-3,4′-bipyridin-2′-yl)acetamide]
7.30 to 8.00 |  | CC(=O)Nc1cc(-c2cnc(Cl)c(NS(=O)(=O)c3ccc(C4CC4)cc3F)c2C)ccn1 [Compound I-335, N-(6-chloro-5-{[(4-cyclopropyl-2-fluorophenyl)sulfonyl]amino}-4-methyl-3,4′-bipyridin-2′-yl)acetamide]
7.00 to 7.30 |  | CC(=O)Nc1cc(-c2cnc(C)c(NS(=O)(=O)c3ccc(F)cc3F)c2)cc(C)n1 [Compound I-414, N-(5-{[(2,4-difluorophenyl)sulfonyl]amino}-6,6′-dimethyl-3,4′-bipyridin-2′-yl)acetamide]
> 8.00 |  | CN(C)S(=O)(=O)Nc1cc(-c2ccnc(Nc3ccnc(C4CC4)n3)c2)cn2nccc12 [Compound I-427, N′-(6-{2-[(2-cyclopropylpyrimidin-4-yl)amino]pyridin-4-yl}pyrazolo[1,5-a]pyridin-4-yl)-N,N-dimethylsulfuric diamide]
> 8.00 |  | COc1cc(F)c(S(=O)(=O)Nc2cc(-c3ccnc(NC(C)=O)c3)cnc2C)cc1F [Compound I-159, N-(5-{[(2,5-difluoro-4-methoxyphenyl)sulfonyl]amino}-6-methyl-3,4′-bipyridin-2′-yl)acetamide]
7.30 to 8.00 |  | COc1ncc(-c2ccnc(Nc3ccnc(C)n3)c2)cc1S(=O)(=O)NC1CCC1 [Compound I-224, N-cyclobutyl-6-methoxy-2′-[(2-methylpyrimidin-4-yl)amino]-3,4′-bipyridine-5-sulfonamide]
